{"source": "patent US12624018B1", "about": "“Inhibitors of RIPK2 and medical uses thereof” (Odyssey Therapeutics, Inc., priority 2022, dated 2026)", "note": "pIC50: −log10 of the molar value."}
{"molecular_target": "T1, RIPK2 enzyme (Homo sapiens, UniProt O43353)", "T1 construct": "purchased Carna 09-128", "T1 sequence (O43353 1-299 limits assumed)": "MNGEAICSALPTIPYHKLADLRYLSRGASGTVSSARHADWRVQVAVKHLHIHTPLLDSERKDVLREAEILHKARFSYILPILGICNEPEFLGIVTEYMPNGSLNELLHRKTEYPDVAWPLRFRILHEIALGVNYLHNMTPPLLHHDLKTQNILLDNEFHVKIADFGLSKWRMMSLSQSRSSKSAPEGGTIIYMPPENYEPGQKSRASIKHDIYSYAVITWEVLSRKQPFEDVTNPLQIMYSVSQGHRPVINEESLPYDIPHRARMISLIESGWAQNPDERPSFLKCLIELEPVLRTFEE", "assay": "RIPK2 inhibition (ADP-Glo Kinase Assay)", "assay_type": "biochemical", "details": "RIPK2 5 nM, ATP 150 μM, MBP substrate, read-out: RIPK2 IC50", "method_in_brief": "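Human RIPK2 (5 nM) preincubated with compound 30 min at room temperature in 50 mM HEPES pH 7.5, 10 mM MgCl2, 2 mM DTT, 1 mM EGTA, 0.01% Brij-35, 0.05% BSA; native swine MBP as substrate. ADP formed quantified by ADP-Glo luminescence; percent inhibition relative to DMSO and no-enzyme controls.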"}
{"smiles": "Cc1c(Oc2ccnc3ccc(S(=O)(=O)N4C[C@@H](C)N[C@@H](C)C4)cc23)ccc(CC(=O)Nc2cnn(C(C)(C)C)c2)c1F", "note": "[Compound 387, N-(1-(tert-butyl)-1H-pyrazol-4-yl)-2-(4-((6-(((3R,5S)-3,5-dimethylpiperazin-1-yl)sulfonyl)quinolin-4-yl)oxy)-2-fluoro-3-methylphenyl)acetamide]", "pIC50": "> 8.60"}
{"smiles": "Cc1cc(CC(=O)Nc2cnn(C(C)(C)C)c2)c(F)cc1Oc1ccnc2ccc(C(=O)N3C[C@@H](C)N[C@@H](C)C3)cc12", "note": "[Compound 388, N-(1-(tert-butyl)-1H-pyrazol-4-yl)-2-(4-((6-((3R,5S)-3,5-dimethyl-piperazine-1-carbonyl)quinolin-4-yl)oxy)-2-fluoro-5-methyl-phenyl) acetamide]", "pIC50": "> 8.60"}
{"smiles": "Cc1cc(CC(=O)Nc2cnn(C(C)(C)C)c2)c(F)cc1Oc1ccnc2ccc(S(=O)(=O)N3C[C@@H](C)O[C@@H](C)C3)cc12", "note": "[Compound 389, N-(1-(tert-butyl)-1H-pyrazol-4-yl)-2-(4-((6-(((2R,6S)-2,6-dimethylmorpholino)sulfonyl)quinolin-4-yl)oxy)-2-fluoro-5-methylphenyl)acetamide]", "pIC50": 8.54}
{"smiles": "Cc1cc(CC(=O)Nc2cnn(C(C)(C)C)c2)c(F)cc1Oc1ccnc2ccc(S(=O)(=O)N3C[C@@H](C)N[C@@H](C)C3)cc12", "note": "[Compound 390, N-(1-(tert-butyl)-1H-pyrazol-4-yl)-2-(4-((6-(((3R,5S)-3,5-dimethylpiperazin-1-yl)sulfonyl)quinolin-4-yl)oxy)-2-fluoro-5-methylphenyl)acetamide]", "pIC50": "> 8.60"}
{"smiles": "Cc1cc(CC(=O)Nc2cnn(C(C)(C)C)c2)c(F)cc1Oc1ccnc2ccc(C(=O)NCC3COC3)cc12", "note": "[Compound 391, 4-(4-(2-((1-(tert-butyl)-1H-pyrazol-4-yl)amino)-2-oxoethyl)-5-fluoro-2-methyl-phenoxy)-N-(oxetan-3-ylmethyl) quinoline-6-carboxamide]", "pIC50": "> 8.60"}
{"smiles": "Cc1cc(CC(=O)Nc2cnn(C(C)(C)C)c2)c(F)cc1Oc1ccnc2ccc(C(=O)NC3COC3)cc12", "note": "[Compound 392, 4-(4-(2-((1-(tert-butyl)-1H-pyrazol-4-yl)amino)-2-oxoethyl)-5-fluoro-2-methyl-phenoxy)-N-(oxetan-3-yl)quinoline-6-carboxamide]", "pIC50": "> 8.60"}
{"smiles": "Cc1cc(CC(=O)Nc2cnn(C(C)(C)C)c2)c(F)cc1Oc1ccnc2ccc(C(=O)N[C@H]3C[C@H](O)C3)cc12", "note": "[Compound 393, 4-(4-(2-((1-(tert-butyl)-1H-pyrazol-4-yl)amino)-2-oxoethyl)-5-fluoro-2-methyl-phenoxy)-N-((1r,3r)-3-hydroxy-cyclobutyl) quinoline-6-carboxamide]", "pIC50": "> 8.60"}
{"smiles": "Cc1cc(CC(=O)Nc2cnn(C(C)(C)C)c2)c(F)cc1Oc1ccnc2ccc(C(=O)N[C@H]3C[C@@H](O)C3)cc12", "note": "[Compound 394, 4-(4-(2-((1-(tert-butyl)-1H-pyrazol-4-yl)amino)-2-oxoethyl)-5-fluoro-2-methyl-phenoxy)-N-((1s,3s)-3-hydroxy-cyclobutyl) quinoline-6-carboxamide]", "pIC50": "> 8.60"}
{"smiles": "Cc1cc(CC(=O)Nc2cnn(C(C)(C)C)c2)c(F)cc1Oc1ccnc2ccc(C(=O)NC3CNC3)cc12", "note": "[Compound 397, N-(azetidin-3-yl)-4-(4-(2-((1-(tert-butyl)-1H-pyrazol-4-yl)amino)-2-oxoethyl)-5-fluoro-2-methyl-phenoxy) quinoline-6-carboxamide]", "pIC50": "> 8.60"}
{"smiles": "Cc1cc(CC(=O)Nc2cnn(C(C)(C)C)c2)c(F)cc1Oc1ccnc2ccc(C(=O)NC3CC(F)(F)C3)cc12", "note": "[Compound 398, 4-(4-(2-((1-(tert-butyl)-1H-pyrazol-4-yl)amino)-2-oxoethyl)-5-fluoro-2-methyl-phenoxy)-N-(3,3-difluoro-cyclobutyl) quinoline-6-carboxamide]", "pIC50": "> 8.60"}
{"smiles": "Cc1c(Oc2ccnc3ccc(C(=O)NCC4COC4)cc23)ccc(CC(=O)Nc2cnn(C(C)(C)C)c2)c1F", "note": "[Compound 399, 4-(4-(2-((1-(tert-butyl)-1H-pyrazol-4-yl)amino)-2-oxoethyl)-3-fluoro-2-methyl-phenoxy)-N-(oxetan-3-ylmethyl) quinoline-6-carboxamide]", "pIC50": "> 8.60"}
{"smiles": "Cc1c(Oc2ccnc3ccc(C(=O)NC4COC4)cc23)ccc(CC(=O)Nc2cnn(C(C)(C)C)c2)c1F", "note": "[Compound 400, 4-(4-(2-((1-(tert-butyl)-1H-pyrazol-4-yl)amino)-2-oxoethyl)-3-fluoro-2-methyl-phenoxy)-N-(oxetan-3-yl)quinoline-6-carboxamide]", "pIC50": "> 8.60"}
{"smiles": "Cc1c(Oc2ccnc3ccc(C(=O)N[C@H]4C[C@H](O)C4)cc23)ccc(CC(=O)Nc2cnn(C(C)(C)C)c2)c1F", "note": "[Compound 401, 4-(4-(2-((1-(tert-butyl)-1H-pyrazol-4-yl)amino)-2-oxoethyl)-3-fluoro-2-methyl-phenoxy)-N-((1r,3r)-3-hydroxy-cyclobutyl) quinoline-6-carboxamide]", "pIC50": "> 8.60"}
{"smiles": "Cc1c(Oc2ccnc3ccc(C(=O)N[C@H]4C[C@@H](O)C4)cc23)ccc(CC(=O)Nc2cnn(C(C)(C)C)c2)c1F", "note": "[Compound 402, 4-(4-(2-((1-(tert-butyl)-1H-pyrazol-4-yl)amino)-2-oxoethyl)-3-fluoro-2-methyl-phenoxy)-N-((1s,3s)-3-hydroxy-cyclobutyl) quinoline-6-carboxamide]", "pIC50": "> 8.60"}
{"smiles": "Cc1c(Oc2ccnc3ccc(C(=O)NC4CNC4)cc23)ccc(CC(=O)Nc2cnn(C(C)(C)C)c2)c1F", "note": "[Compound 405, N-(azetidin-3-yl)-4-(4-(2-((1-(tert-butyl)-1H-pyrazol-4-yl)amino)-2-oxoethyl)-3-fluoro-2-methylphenoxy)quinoline-6-carboxamide]", "pIC50": "> 8.60"}
{"smiles": "Cc1c(Oc2ccnc3ccc(C(=O)NC4CC(F)(F)C4)cc23)ccc(CC(=O)Nc2cnn(C(C)(C)C)c2)c1F", "note": "[Compound 406, 4-(4-(2-((1-(tert-butyl)-1H-pyrazol-4-yl)amino)-2-oxoethyl)-3-fluoro-2-methylphenoxy)-N-(3,3-difluorocyclobutyl)quinoline-6-carboxamide]", "pIC50": "> 8.60"}
{"smiles": "Cc1c(Oc2ccnc3ccc(CC4CCNCC4)cc23)ccc(CC(=O)Nc2cnn(C(C)(C)C)c2)c1F", "note": "[Compound 407, N-(1-(tert-butyl)-1H-pyrazol-4-yl)-2-(2-fluoro-3-methyl-4-((6-(piperidin-4-ylmethyl)quinolin-4-yl)oxy)phenyl)acetamide]", "pIC50": "> 8.60"}
{"smiles": "Cc1cc(CC(=O)Nc2cnn(C(C)(C)C)c2)c(F)cc1Oc1ccnc2ccc(CC3CCNCC3)cc12", "note": "[Compound 408, N-(1-(tert-butyl)-1H-pyrazol-4-yl)-2-(2-fluoro-5-methyl-4-((6-(piperidin-4-ylmethyl)quinolin-4-yl)oxy)phenyl)acetamide]", "pIC50": "> 8.60"}
{"smiles": "Cc1c(Oc2ccnc3ccc(O[C@H]4C[C@H]5CC[C@@H](C4)N5)cc23)ccc(CC(=O)Nc2cnn(C(C)(C)C)c2)c1F", "note": "[Compound 409, 2-(4-((6-(((1R,3r,5S)-8-azabicyclo[3. 2.1]octan-3-yl)oxy)quinolin-4-yl)oxy)-2-fluoro-3-methyl-pheny1)-N-(1-(tert-butyl)-1H-pyrazol-4-yl)acetamide]", "pIC50": "> 8.60"}
{"smiles": "Cc1cc(CC(=O)Nc2cnn(C(C)(C)C)c2)c(F)cc1Oc1ccnc2ccc(O[C@H]3C[C@H]4CC[C@@H](C3)N4)cc12", "note": "[Compound 410, 2-(4-((6-(((1R,3r,5S)-8-azabicyclo[3. 2.1]octan-3-yl)oxy)quinolin-4-yl)oxy)-2-fluoro-5-methyl-pheny1)-N-(1-(tert-butyl)-1H-pyrazol-4-yl)acetamide]", "pIC50": "> 8.60"}
